This passage reports IC50 results from US20230219963A1, “PYRROLO[2,3-D]PYRIMIDINE DERIVATIVES” (Pfizer Inc., priority 2020, published 2023).

One assay concerns IL-21 induced pSTAT3. The experiment in a line: IL-21-induced pSTAT3 in human whole blood (lymphocytes). Format: cell-based. The following applies: Lymphocyte, JAK1/JAK3, read-out: IL-21 induced pSTAT3, cellular potency IC50. As to the method: (§1) Human whole blood was collected from healthy donors via vein puncture into Vacutainer collection tubes containing sodium heparin in accordance with Pfizer protocols (Protocol No. GOHW RDP-01) approved by the Shulman Institutional Review Board. Blood was warmed to 37° C. priorto use. Human whole blood was aliquoted (90 μL/well) in 96-well, deep-well, V-bottom plates and treated with compounds (5 μL/well) at different concentrations up to 60 μM (0.2% DMSO final) at 37° C. for 60 minutes. This was followed by a challenge with IFNα (5000 U/mL), IFNγ (100 ng/mL), IL-6 (50 ng/mL), IL-10 (30 ng/mL), IL-12 (30 ng/mL), IL-15 (30 ng/mL), IL-21 (50 ng/mL), IL-23 (25 ng/mL), IL-27 (1000 ng/mL), EPO (2 U/mL), TSLP (50 ng/mL) or PBS and incubated for 15 minutes. Anti-cell surface antibodies were added 15 minutes prior to cytokine stimulation; anti-CD3-BV421 (0.5 μL/well) to IL-6-treated and TSLP-treated samples and anti-CD14-BV421 (0.5 μL/well) to IFNγ-treated samples. Samples were treated with warm 1×Lyse/Fix buffer (700 μL/well) to terminate activation and further incubated at 37° C. for 20 minutes to lyse red blood cells. Plates were centrifuged at 300×g for 5 minutes, supernatant was aspirated, and cells were washed with 800 μL/well of staining buffer (D-PBS containing 0.1% FBS and 0.01% sodium azide). Washed cell pellets were resuspended in 350 μL/well of prechilled 90% methanol and incubated at 4° C. for 30 minutes. After the removal of 90% methanol, cells were washed once with staining buffer. All samples were finally suspended in 150 μL/well of the desired anti-phospho-STAT antibodies at 1:150 dilution in staining buffer; anti-pSTAT1-AF647 in IFNγ treated samples; anti-pSTAT1-AF488 and anti-pSTAT3-AF647 in IL-6-treated samples, anti-pSTAT3-AF647 in IFNα, IL-10, IL-21, IL-23 and IL-27 treated samples, anti-pSTAT4-AF647 in IL-12 treated samples, anti-pSTAT5-AF-647 in EPO, IL-15 and TSLP-treated samples. Human primary keratinocytes were cultured in DermaLife™ medium with supplement kit to expand cell population. Cell passages 2 to 5 were used in the assays. Cells were harvested at ˜80% confluence, suspended in warm DermaLife™ medium, aliquoted (90 μL/well) in 96-well, deep-well, V-bottom plates, and incubated at 37° C. for 30 minutes. Cells were then treated with compounds (0.0003 to 20 μM) for 60 minutes and followed by stimulation with IL-4 (2 ng/mL) or IL-13 (20 ng/mL) at 37° C. for 15 minutes. […]
(§2) After overnight incubation at 4° C., anti-pSTAT stained samples were transferred into 96-well polypropylene U-bottom plates and flow cytometric analysis was performed on a LSR Fortessa™ equipped with a HTS plate loader. […] Background fluorescence was defined using unstimulated cells and a gate was placed at the foot of the peak to include ˜0.5% gated population. […]

Another assay deals with IL-6 induced pSTATI. Nature of the assay: IL-6-induced pSTAT1 in human whole blood (CD3+ cells). Type of assay: cell-based. The following applies: JAK1/JAK2, read-out: IL-6 induced pSTATI, cellular potency IC50. As to the method:
as §1, §2

The next assay has as its target JAK2 (Homo sapiens, UniProt O60674). The experiment in a line: JAK Caliper Enzyme Assay at 1 mM ATP (JAK2). Format: biochemical. The procedure: (§3) JAK Caliper Enzyme Assay at 1 mM ATP
(§4) Test article was solubilized in dimethyl sulfoxide (DMSO) to a stock concentration of 30 mM. An 11-point half log dilution series was created in DMSO with a top concentration of 600 μM. […] The compound plates were diluted 1 to 60 resulting in a top final assay compound concentration of 10 μM and a 2% DMSO concentration. Test article and assay controls were added to a 384-well plate. Reaction mixtures contained 20 mM HEPES, pH 7.4, 10 mM magnesium chloride, 0.01% bovine serum albumin (BSA), 0.0005% Tween 20, 1 mM ATP and 1 μM peptide substrate. […] The assays were initiated by the addition of 20 nM JAK1, 1 nM JAK2, 1 nM JAK3 or 1 nM TYK2 enzyme and were incubated at room temperature for three hours for JAK1, 60 minutes for JAK2, 75 minutes for JAK3 or 135 minutes for TYK2. Enzyme concentrations and incubation times were optimized for each new enzyme preps and were modified slightly over time to ensure 20%-30% phosphorylation. The assays were stopped with a final concentration of 10 mM EDTA, 0.1% Coating Reagent and 100 mM HEPES, pH=7.4. The assay plates were placed on a Caliper Life Science Lab Chip 3000 (LC3000) instrument, and each well was sampled using appropriate separation conditions to measure the unphosphorylated and phosphorylated peptide.

In a further assay the test system is IL-23 induced pSTAT3. Nature of the assay: IL-23-induced pSTAT3 in human whole blood (lymphocytes). Format: cell-based. The following applies: Lymphocyte, JAK2/TYK2, read-out: IL-23 induced pSTAT3, cellular potency IC50. As to the method: as §1, §2
For the next assay, the system named is IL-27 induced pSTAT3. Nature of the assay: IL-27-induced pSTAT3 in human whole blood (lymphocytes). Format: cell-based. The note with it: Lymphocyte, JAK1/JAK2, read-out: IL-27 induced pSTAT3, cellular potency IC50. As to the method: as §1, §2
The next assay relates to EPO induced pSTAT5. Nature of the assay: EPO-induced pSTAT5 in human whole blood (all events). Format: cell-based. The note with it: JAK2/JAK2, read-out: EPO induced pSTAT5, cellular potency IC50. As to the method: as §1, §2
For the next assay, the target named is JAK1 (Homo sapiens, UniProt P23458). Nature of the assay: JAK Caliper Enzyme Assay at 1 mM ATP (JAK1). Format: biochemical. As to the method: as §3, §4
JAK1, sequence (P23458 whole entry): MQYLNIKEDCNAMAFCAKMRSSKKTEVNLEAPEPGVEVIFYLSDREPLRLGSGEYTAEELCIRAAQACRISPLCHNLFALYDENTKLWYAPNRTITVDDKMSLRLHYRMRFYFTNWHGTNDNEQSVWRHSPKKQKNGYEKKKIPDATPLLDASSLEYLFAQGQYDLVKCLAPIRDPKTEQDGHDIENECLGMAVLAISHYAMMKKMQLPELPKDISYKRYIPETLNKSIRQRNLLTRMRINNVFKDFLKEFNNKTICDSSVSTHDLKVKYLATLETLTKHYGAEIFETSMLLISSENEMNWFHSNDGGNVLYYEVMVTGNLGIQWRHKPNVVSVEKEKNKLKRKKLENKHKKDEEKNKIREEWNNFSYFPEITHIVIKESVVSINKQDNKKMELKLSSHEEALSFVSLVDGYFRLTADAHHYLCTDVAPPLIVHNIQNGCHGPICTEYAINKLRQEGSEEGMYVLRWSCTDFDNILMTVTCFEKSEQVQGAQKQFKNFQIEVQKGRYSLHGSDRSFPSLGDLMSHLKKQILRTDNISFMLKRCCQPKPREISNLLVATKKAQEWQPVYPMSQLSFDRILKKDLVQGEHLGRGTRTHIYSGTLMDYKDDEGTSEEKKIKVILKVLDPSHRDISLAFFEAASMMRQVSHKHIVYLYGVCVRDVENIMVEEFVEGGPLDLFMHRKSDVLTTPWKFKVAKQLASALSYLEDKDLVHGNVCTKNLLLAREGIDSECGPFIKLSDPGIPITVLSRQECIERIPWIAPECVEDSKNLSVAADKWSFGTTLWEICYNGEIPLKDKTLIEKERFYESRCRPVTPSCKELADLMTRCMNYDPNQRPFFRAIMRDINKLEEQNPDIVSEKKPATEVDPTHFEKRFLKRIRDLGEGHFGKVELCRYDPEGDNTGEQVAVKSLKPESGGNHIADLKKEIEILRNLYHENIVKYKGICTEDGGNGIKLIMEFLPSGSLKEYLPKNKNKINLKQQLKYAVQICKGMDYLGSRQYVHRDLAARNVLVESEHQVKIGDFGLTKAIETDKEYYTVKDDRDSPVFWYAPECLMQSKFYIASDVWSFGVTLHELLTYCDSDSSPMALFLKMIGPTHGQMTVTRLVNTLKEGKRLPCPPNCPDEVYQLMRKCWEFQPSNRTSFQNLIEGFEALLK
A further assay has as its system IL-15 induced pSTAT5. The experiment in a line: IL-15-induced pSTAT5 in human whole blood (lymphocytes). Type of assay: cell-based. The following applies: Lymphocyte, JAK1/JAK3, read-out: IL-15 induced pSTAT5, cellular potency IC50. As to the method:
as §1, §2

JAK2, sequence (O60674 whole entry): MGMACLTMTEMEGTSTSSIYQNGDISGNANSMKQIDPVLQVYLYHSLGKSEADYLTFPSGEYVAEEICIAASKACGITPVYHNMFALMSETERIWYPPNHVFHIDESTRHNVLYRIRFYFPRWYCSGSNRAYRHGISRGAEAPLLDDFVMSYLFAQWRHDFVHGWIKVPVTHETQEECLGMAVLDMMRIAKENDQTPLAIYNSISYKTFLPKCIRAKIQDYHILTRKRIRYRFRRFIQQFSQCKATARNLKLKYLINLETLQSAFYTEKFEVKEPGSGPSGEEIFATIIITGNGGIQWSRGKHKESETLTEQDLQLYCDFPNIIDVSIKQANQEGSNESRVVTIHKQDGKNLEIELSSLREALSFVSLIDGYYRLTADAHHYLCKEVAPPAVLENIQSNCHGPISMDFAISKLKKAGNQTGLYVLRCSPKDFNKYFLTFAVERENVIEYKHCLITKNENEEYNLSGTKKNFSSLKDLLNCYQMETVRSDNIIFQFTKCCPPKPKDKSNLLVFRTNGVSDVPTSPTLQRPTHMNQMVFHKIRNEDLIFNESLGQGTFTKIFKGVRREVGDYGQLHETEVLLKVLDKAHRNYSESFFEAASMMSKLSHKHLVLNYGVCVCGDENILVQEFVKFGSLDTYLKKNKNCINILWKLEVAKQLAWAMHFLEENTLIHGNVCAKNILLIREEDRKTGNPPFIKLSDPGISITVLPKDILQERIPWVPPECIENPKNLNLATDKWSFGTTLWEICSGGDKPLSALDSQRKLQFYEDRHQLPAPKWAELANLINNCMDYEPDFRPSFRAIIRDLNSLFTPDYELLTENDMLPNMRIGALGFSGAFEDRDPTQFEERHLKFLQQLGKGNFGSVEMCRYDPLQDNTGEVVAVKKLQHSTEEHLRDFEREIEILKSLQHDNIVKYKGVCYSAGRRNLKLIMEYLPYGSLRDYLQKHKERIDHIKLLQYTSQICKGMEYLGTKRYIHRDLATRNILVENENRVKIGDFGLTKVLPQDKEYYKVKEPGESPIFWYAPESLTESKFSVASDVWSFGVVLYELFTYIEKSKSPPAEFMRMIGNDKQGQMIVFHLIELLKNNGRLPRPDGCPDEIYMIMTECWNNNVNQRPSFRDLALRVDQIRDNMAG

With `C[C@H](O)CS(=O)(=O)N[C@H]1C[C@@H](N(C)c2ncnc3[nH]ccc23)C1` (single isomer, unassigned) [IA (M2)], the IC50 with IL-21 induced pSTAT3 came out at 487 nM; in the assay on IL-6 induced pSTATI, 136 nM; against JAK2, 886 nM; with IL-23 induced pSTAT3, 6210 nM; in the assay on IL-27 induced pSTAT3, 234 nM; in the assay on EPO induced pSTAT5 it was 9470 nM. In addition, the IC50 stood at 17.9 nM against JAK1 and 353 nM in the assay with IL-15 induced pSTAT5.

Take `C[C@@H](O)CS(=O)(=O)N[C@H]1C[C@@H](N(C)c2ncnc3[nH]ccc23)C1` (single isomer, unassigned) [IC (M3)]: the IC50 with IL-21 induced pSTAT3 was found to be 1050 nM; with IL-6 induced pSTATI it was 333 nM; on JAK2, 2280 nM; with IL-23 induced pSTAT3 it was 13800 nM; in the assay on IL-27 induced pSTAT3, 572 nM; in the assay with EPO induced pSTAT5, 18100 nM. The figures for the IC50 at JAK1 and with IL-15 induced pSTAT5 were 56.7 nM and 800 nM, respectively.

In the case of `CN(c1ncnc2[nH]ccc12)[C@H]1C[C@@H](NS(=O)(=O)CCCO)C1` [IB (M1), 3-Hydroxy-N-(cis-3-(methyl(7H-pyrrolo[2,3-d]pyrimidin-4-yl)amino)cyclobutyl)propane-1-sulfonamide], the IC50 in the assay on IL-21 induced pSTAT3 was 844 nM; with IL-6 induced pSTATI, 171 nM; on JAK2 it was 1140 nM; in the assay on IL-23 induced pSTAT3, 26200 nM; in the assay with IL-27 induced pSTAT3 it was 382 nM; in the assay on EPO induced pSTAT5 it was 9750 nM. For the same compound, the IC50 worked out at 43.4 nM against JAK1 and 558 nM in the assay with IL-15 induced pSTAT5.
